Assay results reported in patent US7605163B2, “Benzoyl-piperazine derivatives” (Hoffmann-La Roche Inc., priority 2003, dated 2009).

Biological target: T1, mGlyT-1b (Mus musculus, UniProt P28571)
T1 construct: host or cells: Flp-in-CHO cells
T1 sequence (P28571 1-651 isoform P28571-2): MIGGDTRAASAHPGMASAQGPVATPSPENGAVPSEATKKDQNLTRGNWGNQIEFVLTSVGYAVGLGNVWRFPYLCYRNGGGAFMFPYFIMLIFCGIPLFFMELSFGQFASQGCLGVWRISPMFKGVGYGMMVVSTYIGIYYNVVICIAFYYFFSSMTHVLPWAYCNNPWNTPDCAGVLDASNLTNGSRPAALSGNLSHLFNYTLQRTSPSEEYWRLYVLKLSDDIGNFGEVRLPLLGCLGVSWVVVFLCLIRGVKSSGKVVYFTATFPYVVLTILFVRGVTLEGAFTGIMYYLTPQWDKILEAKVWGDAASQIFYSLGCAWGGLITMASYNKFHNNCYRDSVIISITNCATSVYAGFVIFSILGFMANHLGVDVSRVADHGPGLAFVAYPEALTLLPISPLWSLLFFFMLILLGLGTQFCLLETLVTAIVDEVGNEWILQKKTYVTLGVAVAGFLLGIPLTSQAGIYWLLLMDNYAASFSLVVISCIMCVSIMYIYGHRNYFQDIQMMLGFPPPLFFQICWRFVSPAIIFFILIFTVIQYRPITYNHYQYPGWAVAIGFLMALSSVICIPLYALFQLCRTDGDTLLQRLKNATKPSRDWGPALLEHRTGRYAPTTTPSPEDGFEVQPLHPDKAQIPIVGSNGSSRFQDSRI
Assay: Glycine Uptake Inhibition Assay (mGlyT-1b)
Assay type: cell-based
Conditions: [3H]-glycine uptake inhibition at GlyT-1, Flp-in-CHO cells transfected with mGlyT-1b cDNA
Procedure, shortened: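 Flp-in CHO cells stably expressing mouse GlyT-1b preincubated 20 min at 22 °C with inhibitor in pH 7.4 uptake buffer, then given 60 nM [3H]-glycine plus 25 μM unlabelled glycine. Cell radioactivity counted by scintillation; nonspecific uptake defined with 10 mM glycine; IC50 from concentration range.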

IC50 [nM]	SMILES
34	CS(=O)(=O)c1ccc(OC2CCCCC2)c(C(=O)N2CCN(c3ccc(S(=O)(=O)C4CC4)cc3F)CC2)c1 [compound 574]
39	CS(=O)(=O)c1ccc(OC2CCC2)c(C(=O)N2CCN(c3ccc(S(=O)(=O)C4CC4)cc3F)CC2)c1 [compound 576]
41	CC(C)COc1ccc(S(C)(=O)=O)cc1C(=O)N1CCN(c2ccc(S(=O)(=O)C3CC3)cc2F)CC1 [compound 578]
32	CC(C)Oc1ccc(S(C)(=O)=O)cc1C(=O)N1CCN(c2ccc(S(=O)(=O)C3CCCCC3)cc2F)CC1 [compound 589]
49	CC(C)Oc1ccc(S(C)(=O)=O)cc1C(=O)N1CCN(c2cc(F)c(S(=O)(=O)C3CC3)cc2F)CC1 [compound 595]
47	CC(C)(Oc1ccc(S(C)(=O)=O)cc1C(=O)N1CCN(c2ncc(C(F)(F)F)cc2F)CC1)C(F)(F)F [compound 637]
